The source of these data is PubChem BioAssay AID1117348 (Cheminformatics & Chemogenomics Research Group (CCRG), …, 2015).

Active and inactive are the calls of the source. The rule behind the calls is not given here.

For this assay, the system named is HeLa cell cycle, increased S-phase population. Nature of the assay: HeLa S-phase population increase, dose response, cell-based, IC50 (AID 1117348).
For orientation: IC50 means the concentration at which inhibition is half-maximal. For the compound `CC(=O)N(O)CCCCCNC(=O)CCC(=O)N(O)CCCCCNC(=O)CCC(=O)N(O)CCCCCN`, the IC50 is > 10 µM (inactive).
To `CCCCOC(=O)c1ccc(N)cc1` belongs > 10 µM (inactive).
The same measure for `CC(C)(C)C1CCC(CC2=C(O)c3ccccc3C(=O)C2=O)CC1` (centres undefined): > 10 µM (inactive); for `O=C(O)CCCc1ccc(N(CCCl)CCCl)cc1`: 2.19 µM.
The same measure for `COCc1c(C(C)C)nc(C(C)C)c(/C=C/[C@@H](O)C[C@@H](O)CC(=O)O)c1-c1ccc(F)cc1`: > 10 µM (inactive); for `Nc1nc(=O)n([C@@H]2O[C@H](CO)[C@@H](O)[C@@H]2F)cc1I`: > 10 µM (inactive); for `CO[C@@]12[C@H](COC(N)=O)C3=C(C(=O)C(C)=C(N)C3=O)N1C[C@@H]1N[C@@H]12`: 0.143 µM.
With `COC(=O)c1nc(Cl)c(Cl)nc1N`, the IC50 was > 10 µM (inactive).
To `CC(C)n1c(/C=C/[C@@H](O)C[C@@H](O)CC(=O)O)c(-c2ccc(F)cc2)c2ccccc21` belongs > 10 µM (inactive); to `COc1cc(NC(C)CCCN)c2ncccc2c1` (centres undefined), > 10 µM (inactive).
The same measure for `CC(CC1c2ccccc2CCc2ccccc21)CN(C)C` (centres undefined): > 10 µM (inactive); for `O=C(O)CN(CCN(CC(=O)O)CC(=O)O)CCN(CC(=O)O)CC(=O)O`: > 10 µM (inactive).
As for `CC(=O)O[C@@]12CO[C@@H]1C[C@H](O)[C@@]1(C)C(=O)[C@H](O)C3=C(C)[C@@H](OC(=O)[C@H](O)[C@@H](NC(=O)OC(C)(C)C)c4ccccc4)C[C@@](O)([C@@H](OC(=O)c4ccccc4)[C@H]21)C3(C)C`, the IC50 is > 10 µM (inactive).
To `Cn1cnc([N+](=O)[O-])c1Sc1ncnc2nc[nH]c12` belongs > 10 µM (inactive).
